Entries after “also recorded” stand apart in the source; their conditions may differ.

The test system of the data set is cerebral cortex of F1 C57BL/6N mice. As to the kind of experiment: Microarray expression profiling of F1 cerebral cortex after prenatal exposure to MDMA.
Where [1] appears, read: F1 female, prenatal MDMA 20 mg/kg/day vs vehicle.
Setting [2] is: F1 male, prenatal MDMA 20 mg/kg/day vs vehicle.
[3] abbreviates: common to F1 females and males, cerebral cortex, compared with control group, hydrochloride.

With `CNC(C)Cc1ccc2c(c1)OCO2` (racemic) [MDMA], the “differentially expressed genes after prenatal exposure to MDMA (female group)” value (F1 female cerebral cortex at 11 weeks, dams 20 mg/kg/day p.o. GD 6 to PND 21, vs vehicle, Welch's T-test P<0.05, 1.5 fold change cut-off) is 1,784 genes. For the same compound, under setting [1], the “genes under-expressed in the female cerebral cortex” value is reported as 399 genes and the “genes up-regulated (over-expressed) in the female cerebral cortex” value is given as 1,385 genes. Besides, where the note is “F1 male cerebral cortex at 11 weeks, dams 20 mg/kg/day p.o. GD 6 to PND 21, vs vehicle, Welch's T-test P<0.05, 1.5 fold change cut-off”, the “differentially expressed genes after prenatal exposure to MDMA (male group)” value worked out at 804 genes. Further, under setting [2], the “genes under-expressed in the male cerebral cortex” value is on record as 469 genes and the “genes up-regulated in the male cerebral cortex” value was determined as 335 genes. The “common genes selected from the differentially expressed genes of females and males” value (common to 1,784 genes of females and 804 genes of males) worked out at 90 genes. Moreover, under setting [3], the “Expression change of the 1st to 36th genes of the 90 common genes” value is listed as “reduced; also recorded: down-” and the “Expression change of the 37th to 90th genes of the 90 common genes” value is “up-”. Further, the “effect on transcriptomic configuration of the cerebral cortex among offspring” value (maternal ingestion during pregnancy and lactation, F1 generation, hydrochloride) is listed as “considerably affected; also recorded: this change was permanent”.

The record behind these values is US20110236897A1, “NOVEL MARKERS FOR […] DISEASE CAUSED BY BRAIN INJURY AND USE THEREOF” (priority 2010, published 2011).
